According to patent US20110091638A1, “METHOD OF ANIMAL SLAUGHTER” (priority 2007, published 2011):

Experiments:
[1] = system: Atlantic salmon (Salmo salar); assay: Atlantic salmon transferred into CO saturated seawater
Description: (§1) Mackerel (Scomber scombrus) of about 700 g bodyweight were transferred from seawater into CO saturated seawater at about 16° C. in a 1 m×1 m plastic tank. CO saturation was achieved by pre-flushing the seawater (250 L) with 99.3% pure carbon monoxide (from Yara AS, Norway) for 5 minutes at 2.0 bar through two Wedge-lock diffusers (from Sterner Aqua, Norway). The CO content was monitored and never exceeded 50 ppm in the vicinity of the tank.
Atlantic salmon (Salmo salar) of 0.7 to 1.5 kg bodyweight were transferred from seawater into CO saturated seawater (as in Example 1).

[2] = system: Mackerel (Scomber scombrus); assay: Mackerel transferred into CO saturated seawater
Description: as §1

[3] = system: Atlantic halibut (Hippoglossus hippoglossus); assay: Atlantic halibut transferred into CO saturated seawater
Description: as §1
Atlantic halibut (Hippoglossus hippoglossus) of about 1.5 kg bodyweight were transferred into CO saturated seawater (as in Example 1).

[C-]#[O+] [carbon monoxide] was tested, and the “further exposure time until fish died and turned belly up” value ([1]; continued exposure after anaesthesia) was “more than one”, the “time until fish were relaxed, sedated and finally anesthetised” value ([1]; salmon 0.7 to 1.5 kg) was “about 5 minutes” and the “signs of stress or discomfort during exposure” value ([1]; until anaesthesia) was “no signs of stress or discomfort”. The “time until fish showed signs of fatigue” value ([2]; about 16° C., mackerel about 700 g) was “about 5 minutes”, the “further exposure time until fish died and turned belly up” value ([2]; continued exposure after signs of fatigue) was 5 min and the “further exposure time until fish died” value ([3]; continued exposure after loss of flight reaction) was “two”. The “time until flight reaction was not pronounced” value ([3]; halibut about 1.5 kg) was “about 2 minutes”.
